Experimental data published in PubChem BioAssay AID1963853 (Molecular Pharmacology Branch, DTP, NCI, 2024).
pIC50: −log10 of the molar value.

System: 266295-075-R-J1-PDC spheroid viability
Experiment: Anticancer human tumor 266295-075-R-J1-PDC patient-derived head and neck squamous carcinoma cell line growth inhibition [POLQ]
Settings: spheroids with HUVEC and MSC; for pIC50: curve of first compound; for viability, T/C: stronger effect = lower value
Procedure, shortened: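 Complex spheroid viability model combining PDC tumour cells with endothelial (HUVEC) and MSC stromal cells. Novobiocin, ART-558 or RP6685 were tested singly and in combination with standard and investigational anticancer drugs. Each was titrated in half-log steps from near clinical Cmax, or from 10 microM where Cmax was unknown.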

[1] = second compound 0.0316 µM, first compound 0.0316 µM
[2] = second compound 0.0316 µM, first compound 0.1 µM
[3] = second compound 0.0316 µM, first compound 0.316 µM
[4] = second compound 0.0316 µM, first compound 1 µM
[5] = second compound 0.0316 µM, first compound 3.16 µM
[6] = second compound 0.0316 µM, first compound 10 µM
[7] = second compound 0.1 µM, first compound 0.0316 µM
[8] = second compound 0.1 µM, first compound 0.1 µM
[9] = second compound 0.1 µM, first compound 0.316 µM
[10] = second compound 0.1 µM, first compound 1 µM
[11] = second compound 0.1 µM, first compound 3.16 µM
[12] = second compound 0.1 µM, first compound 10 µM
[13] = second compound 0.316 µM, first compound 0.0316 µM
[14] = second compound 0.316 µM, first compound 0.1 µM
[15] = second compound 0.316 µM, first compound 0.316 µM
[16] = second compound 0.316 µM, first compound 1 µM
[17] = second compound 0.316 µM, first compound 3.16 µM
[18] = second compound 0.316 µM, first compound 10 µM
[19] = second compound 1 µM, first compound 0.0316 µM
[20] = second compound 1 µM, first compound 0.1 µM
[21] = second compound 1 µM, first compound 0.316 µM
[22] = second compound 1 µM, first compound 1 µM
[23] = second compound 1 µM, first compound 3.16 µM
[24] = second compound 1 µM, first compound 10 µM
[25] = second compound 3.16 µM, first compound 0.0316 µM
[26] = second compound 3.16 µM, first compound 0.1 µM
[27] = second compound 3.16 µM, first compound 0.316 µM
[28] = second compound 3.16 µM, first compound 1 µM
[29] = second compound 3.16 µM, first compound 3.16 µM
[30] = second compound 3.16 µM, first compound 10 µM
[31] = second compound 10 µM, first compound 0.0316 µM
[32] = second compound 10 µM, first compound 0.1 µM
[33] = second compound 10 µM, first compound 0.316 µM
[34] = second compound 10 µM, first compound 1 µM
[35] = second compound 10 µM, first compound 3.16 µM
[36] = second compound 10 µM, first compound 10 µM
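Further: spheroids exposed to compounds for seven days before readout.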

`O=C(Nc1ccc(O)c(NS(=O)(=O)c2ccc(F)cc2)c1)c1ccc(-c2ccccc2)cc1` + Nc1ccc(C#CCN(C(=O)Cc2ncc(C(F)(F)F)cc2C(F)(F)F)c2ccc(F)cc2)nn1 was tested, and the pIC50 (second compound 0.0316 µM) was under 5.00, the pIC50 (second compound 0.1 µM) was under 5.00 and the pIC50 (second compound 0.316 µM) was under 5.00. For the same molecule, the pIC50 (second compound 1 µM) was under 5.00, the pIC50 (second compound 3.16 µM) was under 5.00 and the pIC50 (second compound 10 µM) was under 5.00. For the same molecule, the viability, T/C [1] was 118%, the viability, T/C [2] was 105% and the viability, T/C [3] was 96.8%. The viability, T/C [4] was 114%, the viability, T/C [5] was 135% and the viability, T/C [6] was 87.8%. The viability, T/C [7] was 98.3%, the viability, T/C [8] was 123% and the viability, T/C [9] was 86.3%. It also gave a viability, T/C [10] of 118%, a viability, T/C [11] of 131% and a viability, T/C [12] of 94.7%. It also gave a viability, T/C [13] of 103%, a viability, T/C [14] of 113% and a viability, T/C [15] of 123%. It also gave a viability, T/C [16] of 114%, a viability, T/C [17] of 130% and a viability, T/C [18] of 106%. The viability, T/C [19] was 101%, the viability, T/C [20] was 109% and the viability, T/C [21] was 83.5%. For the same molecule, the viability, T/C [22] was 109%, the viability, T/C [23] was 131% and the viability, T/C [24] was 91.9%. It also gave a viability, T/C [25] of 94.4%, a viability, T/C [26] of 98% and a viability, T/C [27] of 91%. It also gave a viability, T/C [28] of 99.7%, a viability, T/C [29] of 111% and a viability, T/C [30] of 106%. It also gave a viability, T/C [31] of 87.9%, a viability, T/C [32] of 82.4% and a viability, T/C [33] of 102%. The viability, T/C [34] was 105%, the viability, T/C [35] was 94.3% and the viability, T/C [36] was 87.9%.
With `O=C(c1cc(Cc2n[nH]c(=O)c3ccccc23)ccc1F)N1CCN(C(=O)C2CC2)CC1` + COC1C(OC(N)=O)C(O)C(Oc2ccc3c(O)c(NC(=O)c4ccc(O)c(CC=C(C)C)c4)c(=O)oc3c2C)OC1(C)C the pIC50 (second compound 0.0316 µM) was under 5.00, the pIC50 (second compound 0.1 µM) was under 5.00 and the pIC50 (second compound 0.316 µM) was under 5.00. For the same molecule, the pIC50 (second compound 1 µM) was under 5.00, the pIC50 (second compound 3.16 µM) was under 5.00 and the pIC50 (second compound 10 µM) was under 5.00. It also gave a viability, T/C [1] of 84.6%, a viability, T/C [2] of 107% and a viability, T/C [3] of 84.8%. For the same molecule, the viability, T/C [4] was 110%, the viability, T/C [5] was 87.7% and the viability, T/C [6] was 97.9%. For the same molecule, the viability, T/C [7] was 89.2%, the viability, T/C [8] was 114% and the viability, T/C [9] was 89.9%. It also gave a viability, T/C [10] of 93.7%, a viability, T/C [11] of 98.6% and a viability, T/C [12] of 84.6%. For the same molecule, the viability, T/C [13] was 101%, the viability, T/C [14] was 99.8% and the viability, T/C [15] was 88.9%. It also gave a viability, T/C [16] of 99.8%, a viability, T/C [17] of 93.6% and a viability, T/C [18] of 80%. For the same molecule, the viability, T/C [19] was 98.1%, the viability, T/C [20] was 89.8% and the viability, T/C [21] was 88.1%. For the same molecule, the viability, T/C [22] was 82.3%, the viability, T/C [23] was 83.5% and the viability, T/C [24] was 90.9%. For the same molecule, the viability, T/C [25] was 96.6%, the viability, T/C [26] was 103% and the viability, T/C [27] was 104%. It also gave a viability, T/C [28] of 83.8%, a viability, T/C [29] of 100% and a viability, T/C [30] of 102%. The viability, T/C [31] was 106%, the viability, T/C [32] was 89.7% and the viability, T/C [33] was 90.8%. The viability, T/C [34] was 89.4%, the viability, T/C [35] was 112% and the viability, T/C [36] was 81.4%.
`COc1cc2cc(C(=O)CCC(=O)O)sc2cc1OC` + Cc1cccc(N(C)C(=O)C2C(O)CCN2c2nc(C)cc(C(F)(F)F)c2C#N)c1 gave a pIC50 (second compound 0.0316 µM) of under 5.00, a pIC50 (second compound 0.1 µM) of under 5.00 and a pIC50 (second compound 0.316 µM) of under 5.00. For the same molecule, the pIC50 (second compound 1 µM) was under 5.00, the pIC50 (second compound 3.16 µM) was under 5.00 and the pIC50 (second compound 10 µM) was under 5.00. It also gave a viability, T/C [1] of 118%, a viability, T/C [2] of 112% and a viability, T/C [3] of 90%. The viability, T/C [4] was 117%, the viability, T/C [5] was 95.7% and the viability, T/C [6] was 96%. It also gave a viability, T/C [7] of 113%, a viability, T/C [8] of 103% and a viability, T/C [9] of 82.9%. For the same molecule, the viability, T/C [10] was 111%, the viability, T/C [11] was 115% and the viability, T/C [12] was 115%. The viability, T/C [13] was 134%, the viability, T/C [14] was 112% and the viability, T/C [15] was 92.6%. For the same molecule, the viability, T/C [16] was 114%, the viability, T/C [17] was 87% and the viability, T/C [18] was 84.8%. It also gave a viability, T/C [19] of 106%, a viability, T/C [20] of 87.2% and a viability, T/C [21] of 126%. It also gave a viability, T/C [22] of 104%, a viability, T/C [23] of 110% and a viability, T/C [24] of 80.3%. The viability, T/C [25] was 101%, the viability, T/C [26] was 112% and the viability, T/C [27] was 116%. The viability, T/C [28] was 109%, the viability, T/C [29] was 98.2% and the viability, T/C [30] was 91.3%. The viability, T/C [31] was 97.2%, the viability, T/C [32] was 109% and the viability, T/C [33] was 102%. The viability, T/C [34] was 104%, the viability, T/C [35] was 109% and the viability, T/C [36] was 89.2%.
